Values of other authors as cited in patent US20230226011A1, “Novel Pharmaceutical Composition Comprising Combination of Olopatadine and Nepafenac” (Zenvision Pharma LLP, priority 2020, published 2023).
Structures can show the parent of a compound that is named as a salt.

Conditions: for solubility in water: solvent water

| Compound | solubility in water | solubility in chloroform (solvent chloroform) | solubility in methanol (solvent methanol) |
| --- | --- | --- | --- |
| NC(=O)Cc1cccc(C(=O)c2ccccc2)c1N [Nepafenac, 2-amino-3-benzoylbenzeneacetamide] | practically insoluble | – | – |
| CN(C)CC/C=C1/c2ccccc2COc2ccc(CC(=O)O)cc21 [Olopatadine hydrochloride, 11-[(Z)-3(Dimethylamino)propylidene]-6-11-dihydrodibenz[b,e] oxepin-2-acetic acid, hydrochloride] | sparingly soluble | insoluble | sparingly soluble |
